Experimental findings from ChEMBL document CHEMBL3425494, “Design, synthesis, and antitumor evaluation of novel histone deacetylase inhibitors equipped with a phenylsulfonylfuroxan module as a nitric oxide donor” (J Med Chem, 2015) are described below.

Experiment [1] deals with Histone deacetylase (HDAC1 and HDAC2) (Homo sapiens, UniProt Q13547+Q92769). The experiment is described as follows: Inhibition of HDAC1/HDAC2 in human HeLa cells using Boc-Lys(acetyl)-AMC as substrate after 30 mins by fluorescence assay. It counts as cell-based.
The subject of experiment [2] is HEL. The experiment is described as follows: Cytotoxicity against human HEL cells assessed as growth inhibition after 48 hrs by MTT assay. It counts as functional, cell-based.
Experiment [3] in a line: Cytotoxicity against human HCT116 cells assessed as growth inhibition after 48 hrs by MTT assay. It counts as functional, cell-based. The settings on record: HCT-116, 48 h.
Experiment [4] can be described thus: Cytotoxicity against human U937 cells assessed as growth inhibition after 48 hrs by MTT assay. It counts as functional, cell-based. The settings on record: U-937, 48 h.
Experiment [5] is described as follows: Cytotoxicity against human 3AO cells assessed as growth inhibition after 48 hrs by MTT assay. It counts as functional, cell-based.
Experiment [6] can be described thus: Cytotoxicity against human MDA cells assessed as growth inhibition after 48 hrs by MTT assay. It counts as functional, cell-based.
The nature of experiment [7]: Cytotoxicity against human ES2 cells assessed as growth inhibition after 48 hrs by MTT assay. It counts as functional, cell-based. The settings on record: ES-2, 48 h.
A short description of experiment [8]: Cytotoxicity against human KG1 cells assessed as growth inhibition after 48 hrs by MTT assay. It counts as functional, cell-based. The note with it: KG-1, 48 h.
The next experiment has as its system HeLa. The experiment is described as follows: Cytotoxicity against human HeLa cells assessed as growth inhibition after 48 hrs by MTT assay. It counts as functional, cell-based.
The subject of experiment [9] is HEL. The experiment is described as follows: Cell cycle arrest in human HEL cells assessed as accumulation at G2 phase at 0.5 uM after 48 hrs by propidium iodide staining-based flow cytometric analysis (reference value: 5.28%). It counts as functional.
Experiment [10] has as its system HEL. Nature of the experiment: Cell cycle arrest in human HEL cells assessed as accumulation at S phase at 0.5 uM after 48 hrs by propidium iodide staining-based flow cytometric analysis (reference value: 46.88%). It counts as functional.
The test system of experiment [11] is HEL. Nature of the experiment: Cytotoxicity against human HEL cells assessed as growth inhibition after 48 hrs by MTT assay in presence of SAHA. It counts as functional, cell-based.
Experiment [12] has as its system HEL. The experiment is described as follows: Cell cycle arrest in human HEL cells assessed as accumulation at G1 phase at 0.5 uM after 48 hrs by propidium iodide staining-based flow cytometric analysis (reference value: 47.87%). It counts as functional.

Bounds are passed on as bounds.

As to `O=C(COCCOc1no[n+]([O-])c1S(=O)(=O)c1ccccc1)NO`, the IC50 in experiment [1] stood at 1.5 µM; in the experiment on HEL [2], 6.79 µM; in experiment [3], 13.4 µM; in [4], 8.15 µM; in experiment [5], 19.8 µM; in experiment [6], 15.1 µM. The IC50 in experiment [7] is 8.69 µM; in experiment [8], 7.4 µM.
In the case of `O=C(NO)c1cccc(Oc2no[n+]([O-])c2S(=O)(=O)c2ccccc2)c1`, the IC50 in [1] came to 1.6 µM; in the experiment on HEL [2], 2.6 µM; in experiment [3], 4.57 µM; in the experiment on HeLa, 4.67 µM; in [4] it was 6.49 µM; in experiment [5] it was 9.94 µM. Also, the IC50 in experiment [6] is 13.9 µM; in [7] it was 4.19 µM; in [8], 1.86 µM.
For the molecule `O=S(=O)(c1ccccc1)c1c(OCCCCCCO)no[n+]1[O-]`, the IC50 in experiment [1] was above 1000 µM; in the experiment with HEL [2], 2.16 µM.
For `O=C(CCCCCCC(=O)Nc1ccccc1)NO` [VORINOSTAT], the Activity in the experiment with HEL [9] is recorded as 0%; in the experiment on HEL [10], 20.02%.
For the molecule `O=C(/C=C/COc1no[n+]([O-])c1S(=O)(=O)c1ccccc1)NO`, the IC50 in experiment [1] came to 3.7 µM; in the experiment with HeLa, 8.74 µM; in experiment [5], 57.7 µM; in experiment [6], 47.7 µM; in experiment [7], 19.1 µM.
On to `O=C(/C=C/c1ccc(Oc2no[n+]([O-])c2S(=O)(=O)c2ccccc2)cc1)NO`, for which the IC50 in [1] turned out to be 0.15 µM; in the experiment with HEL [2], 2.41 µM; in experiment [3] it was 8.09 µM; in the experiment with HeLa, 10.4 µM; in experiment [4] it was 16.1 µM; in [5], 38.1 µM. For the same molecule, the IC50 in experiment [6] stood at 25.6 µM; in experiment [7] it was 24.1 µM; in experiment [8] it was 2.75 µM.
On to `O=C(Cc1ccc(Oc2no[n+]([O-])c2S(=O)(=O)c2ccccc2)cc1)NO`, for which the half-inhibitory concentration (IC50) stood at 0.14 µM in [1]; 13 µM with HEL [2]; 14.2 µM in experiment [3]; 10.4 µM in the experiment on HeLa; 5.01 µM in experiment [4]; 22.2 µM in experiment [5]. Further, the IC50 in experiment [6] was determined as 15 µM; in experiment [7], 4.13 µM; in [8], 1.8 µM.
Turning to `CC(C)(COc1no[n+]([O-])c1S(=O)(=O)c1ccccc1)C(=O)NO`, the IC50 in experiment [1] was above 1000 µM; in the experiment with HEL [2], 5.01 µM; in experiment [4], 12.5 µM; in experiment [5], 18.3 µM; in experiment [6] it was 9.55 µM; in experiment [7], 6.88 µM. In addition, the IC50 in [8] stood at 6.08 µM.
Regarding `O=C(COCCOCCOc1no[n+]([O-])c1S(=O)(=O)c1ccccc1)NO`, the 50% inhibitory concentration (IC50) in experiment [1] is 4.3 µM; with HEL [2], 3.73 µM; in experiment [3], 11.7 µM; in the experiment with HeLa, 5.14 µM; in [4], 12.1 µM; in experiment [5], 19.4 µM. Also, the IC50 in [6] came out at 15.8 µM; in experiment [7] it was 18.1 µM; in [8], 5.38 µM.
Turning to `O=C(NO)c1ccc(Oc2no[n+]([O-])c2S(=O)(=O)c2ccccc2)cc1`, the IC50 in experiment [1] stood at 0.047 µM; in the experiment on HEL [2], 0.92 µM; in experiment [3] it was 2.7 µM; in the experiment on HeLa, 1.73 µM; in experiment [4], 4.73 µM; in experiment [5], 4.35 µM. Moreover, the IC50 in experiment [6] amounted to 6.66 µM; in experiment [7], 2.19 µM; in experiment [8], 1.24 µM.
Regarding `O=C(CCCOc1no[n+]([O-])c1S(=O)(=O)c1ccccc1)NO`, the IC50 in experiment [1] stood at 0.047 µM; in the experiment with HEL [2] it was 0.67 µM; in the experiment with HeLa, 4.79 µM; in experiment [4] it was 3.3 µM; in experiment [5], 22 µM; in experiment [6] it was 6.2 µM. Also, the IC50 in experiment [7] is 3.78 µM; in experiment [8] it was 1.48 µM.
`O=C(CCCCCCOc1no[n+]([O-])c1S(=O)(=O)c1ccccc1)NO`: the IC50 came out at 0.054 µM in experiment [1]; 9.33 µM in the experiment with HEL [2]; 4.69 µM in [3]; 9.93 µM in experiment [4]; 1.21 µM in experiment [6]; 7.73 µM in [7]. Besides, the IC50 in experiment [8] was found to be 4.27 µM.
`O=C(CCCCCCCOc1no[n+]([O-])c1S(=O)(=O)c1ccccc1)NO`: the IC50 worked out at 0.063 µM in experiment [1]; 10.8 µM in the experiment on HEL [2]; 5.03 µM in the experiment on HeLa; 9.3 µM in experiment [4]; 2.7 µM in [6]; 1.32 µM in [7]. Moreover, the IC50 in experiment [8] came out at 0.63 µM.
On to `O=C(CCCCOc1no[n+]([O-])c1S(=O)(=O)c1ccccc1)NO`, for which the IC50 was 0.13 µM in [1]; 1.03 µM in the experiment with HEL [2]; 2.18 µM in experiment [3]; 3.65 µM with HeLa; 2.91 µM in [4]; 4.3 µM in [5]. For the same molecule, the IC50 in experiment [6] was found to be 2.53 µM; in [7], 2.53 µM; in experiment [8], 1.91 µM.
In the case of `COc1cc(C(=O)NO)ccc1Oc1no[n+]([O-])c1S(=O)(=O)c1ccccc1`, the half-maximal inhibitory concentration (IC50) in experiment [1] is 7.3 µM; in the experiment on HEL [2], 5.55 µM; in [3] it was 5.03 µM; with HeLa, 2.26 µM; in experiment [4], 3.64 µM; in experiment [5], 1.24 µM. Moreover, the IC50 in experiment [6] came out at 8.02 µM; in [7], 3.55 µM; in experiment [8] it was 1.65 µM.
In the case of `O=S(=O)(c1ccccc1)c1no[n+]([O-])c1S(=O)(=O)c1ccccc1`, the IC50 was above 1000 µM in experiment [1], 0.69 µM in the experiment with HEL [2] and 0.53 µM in the experiment with HEL [11]. Besides, the Activity with HEL [12] is listed as 53.4%; in the experiment on HEL [9], 3.3%; with HEL [10] it was 43.29%.
Take `CCCC(C)(COc1no[n+]([O-])c1S(=O)(=O)c1ccccc1)C(=O)NO` (stereo not drawn): the IC50 in experiment [1] is above 1000 µM; with HEL [2] it was 71.5 µM; in experiment [3], 66.1 µM; in experiment [4], 25.4 µM; in experiment [5] it was 88.7 µM; in [6], 60.5 µM. For the same molecule, the values for the concentration for half-maximal inhibition (IC50) in experiment [7] and in experiment [8] were 93.3 µM and 4.06 µM, respectively.
